{"source": "paper PMC7122821", "about": "“Molecular basis of P[II] major human rotavirus VP8* domain recognition of histo-blood group antigens” (PLoS Pathogens, 2020)", "key": {"P[8] VP8* (BM13851)": {"biological_target": "P[8] VP8* (BM13851) (Rotavirus A, UniProt P11193)", "assay": "2D 1H-15N HSQC NMR titration of P[8] VP8* with glycans", "format": "binding, human RV", "conditions": "for Kd: read-out: dissociation constant (Kd), PBS buffer, global fitting", "protocol": "Chemical shift perturbations were followed by 2D ^1H-^15N HSQC for P[8] VP8*, P[8] mutants, and P[6] VP8* upon titration of each glycan ligand. NMR data were collected with samples in PBS buffer in 5-mm Shigemi NMR tubes on 600-MHz Bruker Avance III or 850-MHz Bruker Avance II NMR spectrometers equipped with conventional 5-mm HCN probes. Samples of 0.20 mM ^15N-labeled P[8] VP8* was titrated with LNDFH I at 0, 0.020, 0.040, 0.80, 1.00, 1.20, 1.40, 1.60, 2.00, 2.80, 3.60, 4.40, 5.00 mM. The same ratio of LNDFH I was titrated to each P[8] mutant as the titration of LNDFH I to wild type P[8]. Samples of 0.31 mM ^15N-labeled P[8] VP8* was titrated with Le^b tetra-saccharide at 0, 0.031, 0.15, 0.31, 0.62, 1.24, 2.49, 4.35, 5.60, 6.84, 7.78, 8.71, 9.33 mM. Samples of 0.24 mM ^15N-labeled P[6] VP8* was titrated with LNFP I at 0, 0.024, 0.12, 0.24, 0.48, 0.96, 1.93, 3.37, 4.34, 5.30, 6.03, 6.75, 7.23, 8.44 mM. Samples of 0.33 mM ^15N-labeled P[6] VP8* was titrated with LNT at 0, 0.033, 0.17, 0.33, 0.69, 1.34, 2.67, 4.68, 6.01, 7.35, 8.35 mM. Spectra were process with NMRPipe software and analyzed with SPARKY [69]. The chemical shift changes upon titration was determined by the following formula [71]: Δδobs=1/2[δH2+(α·δN2)],δH=δHfree−δHbound,δN=δNfree−δNbound . Where δH free and δH bound are the backbone amide hydrogen chemical shifts in the absence and presence of ligand, δN free and δN bound are the amide nitrogen chemical shifts in the free and bound state. The value of Euclidean weighting correction factor α was set to 0.14 [72]. Standard deviation σ of the Euclidean chemical shift change was calculated and threshold value was chosen from 1.5σ to 2.5σ for the VP8*-HBGA by balancing the specificity and sensitivity. Amino acids with chemical shifts greater than the threshold value were used to calculate the dissociation constants. Dissociation constants were obtained by fitting the following equation: Δδobs=Δδmax{([P]t+[L]t+Kd)−[([P]t+[L]t+Kd)^2−4[P]t[L]t]^1/2}/2Pt . Where [P]t and [L]t represent the total concentrations of protein and ligand, Δδobs is the change in the observed chemical shift from the free state, Δδmax is the maximum chemical shift change on saturation, Kd represents the dissociation constant."}, "P[6] VP8* (BM11596)": {"biological_target": "P[6] VP8* (BM11596) (Rotavirus A, UniProt D2DXN5)", "assay": "2D 1H-15N HSQC NMR titration of P[6] VP8* with glycans", "format": "binding, human RV", "protocol": "Chemical shift perturbations were followed by 2D ^1H-^15N HSQC for P[8] VP8*, P[8] mutants, and P[6] VP8* upon titration of each glycan ligand. NMR data were collected with samples in PBS buffer in 5-mm Shigemi NMR tubes on 600-MHz Bruker Avance III or 850-MHz Bruker Avance II NMR spectrometers equipped with conventional 5-mm HCN probes. Samples of 0.20 mM ^15N-labeled P[8] VP8* was titrated with LNDFH I at 0, 0.020, 0.040, 0.80, 1.00, 1.20, 1.40, 1.60, 2.00, 2.80, 3.60, 4.40, 5.00 mM. The same ratio of LNDFH I was titrated to each P[8] mutant as the titration of LNDFH I to wild type P[8]. Samples of 0.31 mM ^15N-labeled P[8] VP8* was titrated with Le^b tetra-saccharide at 0, 0.031, 0.15, 0.31, 0.62, 1.24, 2.49, 4.35, 5.60, 6.84, 7.78, 8.71, 9.33 mM. Samples of 0.24 mM ^15N-labeled P[6] VP8* was titrated with LNFP I at 0, 0.024, 0.12, 0.24, 0.48, 0.96, 1.93, 3.37, 4.34, 5.30, 6.03, 6.75, 7.23, 8.44 mM. Samples of 0.33 mM ^15N-labeled P[6] […] Spectra were process with NMRPipe software and analyzed with SPARKY [69]. The chemical shift changes upon titration was determined by the following formula [71]: Δδobs=1/2[δH2+(α·δN2)],δH=δHfree−δHbound,δN=δNfree−δNbound . […] Standard deviation σ of the Euclidean chemical shift change was calculated and threshold value was chosen from 1.5σ to 2.5σ for the VP8*-HBGA by balancing the specificity and sensitivity. […]"}, "P[6] VP8*": {"system": "P[6] VP8*", "assay": "STD NMR of glycans with P[6] VP8*", "format": "binding, human RV", "conditions": "283 K", "protocol": "(§1) All STD NMR spectra were acquired in Shigemi Tubes (Shigemi, USA) on 600-MHz Bruker Avance III and 850-MHz Bruker Avance II NMR spectrometers equipped with conventional 5-mm HCN probes at 283 K with pulse sequence STDDIFFESGP.3. The NMR samples for P[8] VP8* were prepared as 46 μM P[8] VP8* with 2.3 mM LNDFHI (1:50 protein: ligand ratio), and 33 μM P[8] VP8* with 1.86 mM Le^b tetra-saccharide (1:56 protein: ligand ratio). The NMR samples for P[6] VP* were prepared as 46 μM P[6] with 4.6 mM LNT (1:100 protein: ligand ratio), and 46 μM P[6] with 2.3 mM LNT (1:50 protein: ligand ratio). A control sample was prepared as 40 μM GST with 2.0 mM LNDFHI (1:50 protein: ligand ratio). […] The protein resonances were saturated with a cascade of Gaussian-shaped pulses with a duration of 50 ms, with a total saturation time of 2 s and 4 s. The on resonance was chosen to selectively saturate only the proteins for each sample. […] The STD amplification factors were determined by the equation (ISTD/IO) × molar ratio, where I0 are the intensities of the signals in the reference spectrum, and ISTD are intensities that obtained by subtracting the on-resonance spectrum from the off-resonance spectrum. The normalized STD amplification percentage for epitope mapping was determined by dividing by the largest STD amplification factor for each ligand."}, "P[8] VP8* [1]": {"system": "P[8] VP8*", "assay": "STD NMR of glycans with P[8] VP8*", "format": "binding, human RV", "conditions": "283 K; 1:50 or 1:56 protein:ligand", "protocol": "as §1"}, "P[8] VP8* [2]": {"system": "P[8] VP8*", "parameters": "method as in PMID 31226167", "conditions": "cited from earlier work"}, "H177A-P[8] VP8* mutant": {"system": "H177A-P[8] VP8* mutant", "assay": "HSQC NMR titration of H177A-P[8] mutant with LNDFH I", "format": "binding, human RV", "conditions": "same ligand ratio as wild type P[8]", "protocol": "(§2) The VP8* core fragments (amino acids 64 to 223) of the human RV P[8] (BM13851) and P[6] (BM11596) with an N-terminal glutathione S-transferase (GST) tag was overexpressed in Escherichia coli BL21 (DE3) cells as previously described. The P[8] T78A, D79A, K168A, R154A, H177A, and D186A mutations were generated through overlap-extension site mutagenesis, and the sequences were confirmed at the Center for Bioinformatics and Functional Genomics (CBFG) at Miami University. Cells were grown in 1L Luria broth (LB) medium supplemented with 100 μg mL^-1 ampicillin at 310 K. When the OD600 reached 0.8, 0.5 mM isopropyl-β-D-thiogalactopyranoside was added to the medium to induce protein expression. The cell pellet was harvested within 12 h after induction and re-suspended in the phosphate-buffered saline (PBS) buffer (140 mM NaCl, 2.7 mM KCl, 10 mM Na2HPO4, 1.8 mM KH2PO4, pH 7.3). […]\n(§3) Chemical shift perturbations were followed by 2D ^1H-^15N HSQC for P[8] […] Spectra were process with NMRPipe software and analyzed with SPARKY [69]. The chemical shift changes upon titration was determined by the following formula [71]: Δδobs=1/2[δH2+(α·δN2)],δH=δHfree−δHbound,δN=δNfree−δNbound . […] Standard deviation σ of the Euclidean chemical shift change was calculated and threshold value was chosen from 1.5σ to 2.5σ for the VP8*-HBGA by balancing the specificity and sensitivity. […]"}, "D186A-P[8] VP8* mutant": {"system": "D186A-P[8] VP8* mutant", "assay": "HSQC NMR titration of D186A-P[8] mutant with LNDFH I", "format": "binding, human RV", "conditions": "same ligand ratio as wild type P[8]", "protocol": "as §2, §3"}, "[3]": {"system": "glutathione S-transferase (GST)", "assay": "STD NMR negative control with GST", "format": "binding", "conditions": "40 μM GST with 2.0 mM ligand", "protocol": "as §1"}, "T78A-P[8] VP8* mutant": {"system": "T78A-P[8] VP8* mutant", "assay": "HSQC NMR titration of T78A-P[8] mutant with LNDFH I", "format": "binding, human RV", "conditions": "same ligand ratio as wild type P[8]", "protocol": "as §2, §3"}, "K168A-P[8] VP8* mutant": {"system": "K168A-P[8] VP8* mutant", "assay": "HSQC NMR titration of K168A-P[8] mutant with LNDFH I", "format": "binding, human RV", "conditions": "same ligand ratio as wild type P[8]", "protocol": "as §2, §3"}, "R154A-P[8] VP8* mutant": {"system": "R154A-P[8] VP8* mutant", "assay": "HSQC NMR titration of R154A-P[8] mutant with LNDFH I", "format": "binding, human RV", "conditions": "same ligand ratio as wild type P[8]", "protocol": "as §2, §3"}, "D79A-P[8] VP8* mutant": {"system": "D79A-P[8] VP8* mutant", "assay": "HSQC NMR titration of D79A-P[8] mutant with LNDFH I", "format": "binding, human RV", "conditions": "same ligand ratio as wild type P[8]", "protocol": "as §2, §3"}}, "note": "Values joined by “and” are separate entries in the source; they are usually repeats but may differ in a detail not shown here. Equal entries are not always repeated. “Also recorded” adds a separate entry of the source."}
{"smiles": "CC(=O)NC1C(OC2C(O)C(CO)OC(OC3C(CO)OC(O)C(O)C3O)C2O)OC(CO)C(O)C1OC1OC(CO)C(O)C(O)C1O", "note": "(stereo not drawn) [LNT, lacto-N-tetraose]", "values": [{"measurement": "binding to P[8] VP8* in HSQC titration", "setting": "P[8] VP8* (BM13851)", "result": "little binding signal; also recorded: did not recognize"}, {"measurement": "Kd", "setting": "P[6] VP8* (BM11596)", "result": "2.5 ± 0.2", "unit": "mM"}, {"measurement": "binding to P[6] VP8* by STD NMR", "setting": "P[6] VP8*", "result": "bound"}]}
{"smiles": "CC(=O)NC1C(OC2C(O)C(CO)OC(OC3C(CO)OC(O)C(O)C3O)C2O)OC(CO)C(O)C1OC1OC(CO)C(O)C(O)C1OC1OC(C)C(O)C(O)C1O", "note": "(stereo not drawn) [LNFP I, lacto-N-fucopentaose I]", "values": [{"measurement": "Kd", "setting": "P[8] VP8* (BM13851)", "result": 23.5, "unit": "mM"}, {"measurement": "Kd", "setting": "P[6] VP8* (BM11596)", "result": "13.6 ± 1.7", "unit": "mM"}, {"measurement": "binding to P[6] VP8* by STD NMR", "setting": "P[6] VP8*", "result": "bound"}]}
{"smiles": "CC(=O)NC1C(O)OC(CO)C(OC2OC(C)C(O)C(O)C2O)C1OC1OC(CO)C(O)C(O)C1OC1OC(C)C(O)C(O)C1O", "note": "(stereo not drawn) [Le^b tetra-saccharide, Fucα1-2Galβ1–3[Fucα1–4]GlcNAc]", "values": [{"measurement": "Kd", "setting": "P[8] VP8* (BM13851)", "result": "20.3 ± 4.8", "unit": "mM"}, {"measurement": "binding to P[8] VP8* by STD NMR", "setting": "P[8] VP8* [1]", "result": "found to bind"}]}
{"smiles": "CC(=O)N[C@H]1C(O)O[C@H](CO)[C@@H](O)[C@@H]1O[C@@H]1O[C@H](CO)[C@H](O)[C@H](O)[C@H]1O", "note": "(stereo partly drawn) [lacto-N-biose]", "values": [{"measurement": "affinity relative to H1 trisaccharide", "setting": "P[8] VP8* [2]", "result": "two-fold weaker affinity"}]}
{"smiles": "CC(=O)NC1C(OC2C(O)C(CO)OC(OC3C(CO)OC(O)C(O)C3O)C2O)OC(CO)C(OC2OC(C)C(O)C(O)C2O)C1OC1OC(CO)C(O)C(O)C1OC1OC(C)C(O)C(O)C1O", "note": "(stereo not drawn) [LNDFH I, lacto-N-difucohexaose I]", "values": [{"measurement": "binding to H177A-P[8] mutant", "setting": "H177A-P[8] VP8* mutant", "result": "significant loss of binding to the glycan"}, {"measurement": "binding to D186A-P[8] mutant", "setting": "D186A-P[8] VP8* mutant", "result": "significant loss of binding to the glycan"}, {"measurement": "Kd", "setting": "P[8] VP8* (BM13851)", "result": "6.3 mM and 6.29 mM"}, {"measurement": "STD NMR signal with GST (negative control)", "setting": "[3]", "result": "did not show significant signal intensities"}, {"measurement": "binding to T78A-P[8] mutant", "setting": "T78A-P[8] VP8* mutant", "result": "retained binding to the glycan"}, {"measurement": "binding to P[8] VP8* by STD NMR", "setting": "P[8] VP8* [1]", "result": "found to bind"}, {"measurement": "binding to K168A-P[8] mutant", "setting": "K168A-P[8] VP8* mutant", "result": "retained binding to the glycan"}, {"measurement": "binding to R154A-P[8] mutant", "setting": "R154A-P[8] VP8* mutant", "result": "significant loss of binding to the glycan"}, {"measurement": "binding to D79A-P[8] mutant", "setting": "D79A-P[8] VP8* mutant", "result": "retained binding to the glycan"}]}
